From EP0441218A2, “Anthracycline-glycosyl prodrugs, process for their preparation and their use in combination with functionalised tumour-specific enzyme conjugates” (BEHRINGWERKE Aktiengesellschaft, priority 1990, dated 1991)

How the values were obtained:
[1] = biological target: T1, Kaffeebohnen-α-Galactosidase (Coffea arabica, UniProt Q42656); test: Cleavage of the prodrug by coffee bean α-galactosidase (HPLC analysis); type: biochemical; conditions: coffee bean alpha-galactosidase; 0.03 U/ml Kaffeebohnen-α-Galactosidase (Sigma), Phosphat-Puffer pH 5, 37 °C; read-out: Halbwertszeit der Spaltung
T1 construct: purchased Sigma
Method: (§1) Spaltung von 14-O-α-D-Galacto-hexo-pyranosyl-doxorubicin (Verbindung 10) durch Human-Plazenta-α-Galactosidase A 0.5 mg der Ausgangsverbindung wurden in 0.5 ml Phosphat-Puffer, pH 5, enthaltend 0.03 U/ml der aus Human-Plazenta isolierten α-Galactosidase A gelöst und bei 37 °C im Dunklen inkubiert. Nach verschiedenen Inkubationszeiten wurden Proben des Inkubationsansatzes entnommen und direkt mittels Hochdruckflüssigkeitschromatographie analysiert (Säule: Nucleosil 100 (RP 18, 5 µm Teilchendurchmesser, 125 x 4.6 mm; Mobile Phase: Gradient aus Lösung A und B: 0 min - 20% A, 10 min - 30% A, 15 min - 30% A, Lösung A = 100% Acetonitril, Lösung B = 0.02 m Phosphat-Puffer pH 3.0; Flußrate: 1 ml/min; Detektion: Fluoreszenz, Ex 495 nm, Em 560 nm). Die Retentionszeit der Ausgangsverbindung betrug unter diesen Chromatographiebedingungen 9.0 min. Die während der Inkubation entstehende Verbindung wies eine mit Adriamycin identische Retentionszeit von 12.6 min auf.
Spaltung von 14-O-α-D-Galacto-hexo-pyranosyl-doxorubicin (Verbindung 10) durch Kaffebohnen-α-Galactosidase Die Ausgangsverbindung wurde unter den gleichen wie in Beispiel 11 beschriebenen Bedingungen in Gegenwart von 0.03 U/ml Kaffeebohnen-α-Galactosidase (Sigma) inkubiert. Die Halbwertszeit der Spaltung betrug in Gegenwart des Enzyms ca. 20 min.

[2] = Stability of the prodrug on incubation in enzyme-free buffer; type: physicochemical; conditions: Phosphat-Puffer pH 5, 37 °C, without enzyme, over the same period (ca. 54 h)
Method: as §1
(§2) Die Halbwertszeit der Spaltung betrug unter dem beschriebenen Bedingungen ca. 54 h (extrapolierter Wert). Bei der Inkubation der Ausgangsverbindung in enzymfreier Pufferlösung blieb die Verbindung über diesen Zeitraum stabil.

[3] = biological target: T2, Human-Plazenta-α-Galactosidase A (Homo sapiens, UniProt P06280); test: Cleavage of the prodrug by human placenta α-galactosidase A (HPLC analysis); type: biochemical; conditions: placenta alpha-galactosidase a, 0.03 U/ml α-Galactosidase A, Phosphat-Puffer pH 5, 37 °C, dark, extrapolated value, read-out: Halbwertszeit der Spaltung (converted)
T2 construct: der aus Human-Plazenta isolierten α-Galactosidase A; from tissue; host or cells: human placenta
T2 sequence (P06280 32-429): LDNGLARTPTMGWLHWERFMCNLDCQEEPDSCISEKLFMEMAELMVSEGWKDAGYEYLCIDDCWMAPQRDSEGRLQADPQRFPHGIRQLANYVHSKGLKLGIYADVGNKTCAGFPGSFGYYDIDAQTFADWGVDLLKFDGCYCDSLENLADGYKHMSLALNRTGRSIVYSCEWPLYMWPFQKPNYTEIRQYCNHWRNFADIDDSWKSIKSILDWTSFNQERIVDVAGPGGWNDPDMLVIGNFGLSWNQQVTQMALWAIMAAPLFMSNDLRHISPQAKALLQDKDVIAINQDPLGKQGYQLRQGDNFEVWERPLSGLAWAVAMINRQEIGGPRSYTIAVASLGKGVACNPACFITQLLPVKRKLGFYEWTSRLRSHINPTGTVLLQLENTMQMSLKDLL
Method: as §1, §2

T1 sequence (Q42656 16-378): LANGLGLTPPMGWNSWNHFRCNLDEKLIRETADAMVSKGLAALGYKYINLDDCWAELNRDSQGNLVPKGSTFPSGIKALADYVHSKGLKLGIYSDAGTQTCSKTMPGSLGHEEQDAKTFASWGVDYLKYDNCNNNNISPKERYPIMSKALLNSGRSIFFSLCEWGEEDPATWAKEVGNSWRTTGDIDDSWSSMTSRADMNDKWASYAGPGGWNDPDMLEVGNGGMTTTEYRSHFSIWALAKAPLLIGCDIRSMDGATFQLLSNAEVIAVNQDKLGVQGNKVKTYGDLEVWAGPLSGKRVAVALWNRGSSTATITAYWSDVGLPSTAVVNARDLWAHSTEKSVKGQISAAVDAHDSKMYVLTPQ

In the case of `COc1cccc2c1C(=O)c1c(O)c3c(c(O)c1C2=O)C[C@@](O)(C(=O)CO[C@H]1O[C@H](CO)[C@H](O)[C@H](O)[C@H]1O)C[C@@H]3O[C@H]1C[C@H](N)[C@H](O)[C@H](C)O1` [Verbindung 10, 14-O-α-D-Galactohexopyranosyl-doxorubicin], the half-life [1] was ~0.333 h, the “Stability in enzymfreier Pufferlösung” value [2] was “stabil” and the half-life [3] was ~54 h.
